Measured values from US20240051997A1, “SAP AND PEPTIDOMIMETIC COMPOSITIONS FOR REDUCING SYMPTOMS OF INFLAMMATION” (Arch Biosurgery, Inc., priority 2018, published 2024).
“Also recorded” adds a separate entry of the source.

How the values were obtained:
Human THP-1 cells [1] = assay: Cytokine release by THP-1 cells stimulated with RADA-16 or LPS (PROTEOME PROFILER Array); assay type: cell-based
Description: (§1) The anti-inflammatory effect of a SAP was examined using an in vitro assay to assess cytokine release by human THP-1 cells in the presence of SAP. Measurement of THP-1 cell activation in response to antigen was assessed by cytokine release.
Human THP-1 cells in culture media (1×10^6 cells in 1 ml of Culture medium) were exposed to the self-assembling peptide RADARADARADARADA (“RADA-16”; SEQ ID NO: 1), at a concentration of 1 μg/well, 10 μg/well, or 100 μg/well.
Human THP-1 cells in the absence of RADA-16 were used as a control to assess the baseline level of cytokine production in “resting” non-actived THP-1 cells.
(§2) To assess cytokine release upon THP-1 cell activation, lipopolysaccharides (LPS) from Salmonella typhimurium (catalog no. L-7261; Sigma-Aldrich, St. Louis, MO) were added to THP-1 cells, at a concentration of 1 μg/ml.
(§3) The release of cytokines in response to exposure of THP-1 cells to RADA-16 (SEQ ID NO: 1) or LPS was measured using the PROTEOME PROFILER™ Array kit, commercially available as a test strip kit for detection of cytokines in solution (R&D Systems, Inc., Catalog Number ARY005). The assay was carried out according to the manufacturer's guide lines.

Human THP-1 cells [2] = assay: Cytokine release by THP-1 cells exposed to LPS/RADA-16 mixture; assay type: cell-based; conditions: LPS 1 μg/ml added to 1, 10 or 100 μg/well peptide, then to THP-1 cells
Description: as §1, §2
To determine the effects of exposing THP-1 cells to RADA-16 (SEQ ID NO: 1) upon cytokine release, LPS was added to each of the 1 μg/well, 10 μg/well, or 100 μg/well RADA-16 samples, and then added to THP-1 cells.
as §3

[3] = tested on: liver inflammation, ED-1 reactivity (macrophage activation); assay: Rat liver injury model (punch biopsy), ED-1 immunohistochemistry; assay type: in vivo, Sprague-Dawley rat; conditions: 4 mm punch biopsy, all time-points observed, compared to saline or acid controls
Description: The anti-inflammatory effects of EARA-16 (SEQ ID NO: 89) and RADA-16 (SEQ ID NO: 1) SAPs were examined using a liver injury model. Levels of inflammation were assayed through immuno-histochemical ED-1 reactivity (ED-1 serves as a marker of macrophage activation).
Pigs or adult Sprague-Dawley rats were anesthetized and their intraperitoneal cavities were opened under aseptic conditions. For each animal, the liver was exposed and then subjected to an 8 mm (pig) or 4 mm (rat) punch biopsy.
The punch sites were then cauterized or treated with acid (for pH control), saline, or RADA-16 (SEQ ID NO: 1) or EARA-16 (SEQ ID NO: 89) solutions. The animals were allowed to survive for up to 14 days. The animals were then sacrificed and their livers were harvested and sectioned. An ED-1 antibody was used to determine the level of inflammation and activation of macrophages in the liver via immunohistochemistry (IHC).

RADARADARADARADA [RADA-16, self-assembling peptide]
IL-13 release (Human THP-1 cells [1]; 10 mcg (10 μg/well) RADA-16): 0
IL-16 (LCF) release (Human THP-1 cells [1]; 10 mcg (10 μg/well) RADA-16): 0
IL-17E release (Human THP-1 cells [1]; 10 mcg (10 μg/well) RADA-16): 0
IL-17 release (Human THP-1 cells [1]; 10 mcg (10 μg/well) RADA-16): 0
IL-23 release (Human THP-1 cells [1]; 10 mcg (10 μg/well) RADA-16): 0
IL-27 release (Human THP-1 cells [1]; 10 mcg (10 μg/well) RADA-16): 0
IL-32 release (Human THP-1 cells [1]; 10 mcg (10 μg/well) RADA-16): 0
IP-10 (CXCL10) release (Human THP-1 cells [1]; 10 mcg (10 μg/well) RADA-16): 0
MCP-1 (CCL2) release (Human THP-1 cells [1]; 10 mcg (10 μg/well) RADA-16): 0
MIP-1 | (CCL3) release (Human THP-1 cells [1]; 10 mcg (10 μg/well) RADA-16): 0
MIP-1− (CCL4) release (Human THP-1 cells [1]; 10 mcg (10 μg/well) RADA-16): 0
SDF-1 (CXCL12) release (Human THP-1 cells [1]; 10 mcg (10 μg/well) RADA-16): 0
TNF- | (TNFSF2) release (Human THP-1 cells [1]; 10 mcg (10 μg/well) RADA-16): 0
sICAM-1 (CD54) release (Human THP-1 cells [1]; 10 mcg (10 μg/well) RADA-16): 0
sTREM-1 release (Human THP-1 cells [1]; 10 mcg (10 μg/well) RADA-16): 0
C5a (Complement Component 5a) release (Human THP-1 cells [1]; 100 mcg (100 μg/well) RADA-16): 0
CD40 Ligand (CD154) release (Human THP-1 cells [1]; 100 mcg (100 μg/well) RADA-16): 0
G-CSF (CSF −, CSF-3) release (Human THP-1 cells [1]; 100 mcg (100 μg/well) RADA-16): 0
GM-CSF (CSF |, CSF-2) release (Human THP-1 cells [1]; 100 mcg (100 μg/well) RADA-16): 0
GRO | (CXCL1) release (Human THP-1 cells [1]; 100 mcg (100 μg/well) RADA-16): 0
I-309 (CCL1) release (Human THP-1 cells [1]; 100 mcg (100 μg/well) RADA-16): 0
I-TAC (CXCL11) release (Human THP-1 cells [1]; 100 mcg (100 μg/well) RADA-16): 0
IFN-• (Type II IFN) release (Human THP-1 cells [1]; 100 mcg (100 μg/well) RADA-16): 0
IL-1 alpha (IL-1F1) release (Human THP-1 cells [1]; 100 mcg (100 μg/well) RADA-16): 0
IL-1 beta (IL-1F2) release (Human THP-1 cells [1]; 100 mcg (100 μg/well) RADA-16): 0
IL-1ra (IL-1F3) release (Human THP-1 cells [1]; 100 mcg (100 μg/well) RADA-16): 0
IL-2 release (Human THP-1 cells [1]; 100 mcg (100 μg/well) RADA-16): 0
IL-4 release (Human THP-1 cells [1]; 100 mcg (100 μg/well) RADA-16): 0
IL-5 release (Human THP-1 cells [1]; 100 mcg (100 μg/well) RADA-16): 0
IL-6 release (Human THP-1 cells [1]; 100 mcg (100 μg/well) RADA-16): 0
IL-8 (CXCL8) release (Human THP-1 cells [1]; 100 mcg (100 μg/well) RADA-16): 0
IL-10 release (Human THP-1 cells [1]; 100 mcg (100 μg/well) RADA-16): 0
IL-12 p 70 release (Human THP-1 cells [1]; 100 mcg (100 μg/well) RADA-16): 0
IL-13 release (Human THP-1 cells [1]; 100 mcg (100 μg/well) RADA-16): 0
IL-16 (LCF) release (Human THP-1 cells [1]; 100 mcg (100 μg/well) RADA-16): 0
IL-17E release (Human THP-1 cells [1]; 100 mcg (100 μg/well) RADA-16): 0
IL-17 release (Human THP-1 cells [1]; 100 mcg (100 μg/well) RADA-16): 0
IL-23 release (Human THP-1 cells [1]; 100 mcg (100 μg/well) RADA-16): 0
IL-27 release (Human THP-1 cells [1]; 100 mcg (100 μg/well) RADA-16): 0
IL-32 release (Human THP-1 cells [1]; 100 mcg (100 μg/well) RADA-16): 0
IP-10 (CXCL10) release (Human THP-1 cells [1]; 100 mcg (100 μg/well) RADA-16): 0
MCP-1 (CCL2) release (Human THP-1 cells [1]; 100 mcg (100 μg/well) RADA-16): 0
MIP-1 | (CCL3) release (Human THP-1 cells [1]; 100 mcg (100 μg/well) RADA-16): 0
MIP-1− (CCL4) release (Human THP-1 cells [1]; 100 mcg (100 μg/well) RADA-16): 0
SDF-1 (CXCL12) release (Human THP-1 cells [1]; 100 mcg (100 μg/well) RADA-16): 0
TNF- | (TNFSF2) release (Human THP-1 cells [1]; 100 mcg (100 μg/well) RADA-16): 0
sICAM-1 (CD54) release (Human THP-1 cells [1]; 100 mcg (100 μg/well) RADA-16): 0
sTREM-1 release (Human THP-1 cells [1]; 100 mcg (100 μg/well) RADA-16): 0
induction of cytokine release relative to baseline (Human THP-1 cells [1]; resting THP-1 cells, 1, 10 or 100 μg/well, no LPS): did not induce cytokine release beyond baseline levels
cytokine release upon LPS exposure (C5a, TNFSF2, IL-6, IL-8/CXCL8, MCP-1/CCL2, MIP-1/CCL3, MIP-1/CCL4, IL-1/IL1-F2) (Human THP-1 cells [2]): reduced levels of cytokine release; also recorded: prevented or reduced the release of cytokines
levels of inflammation in liver (ED-1 IHC) [3]: markedly reduced the levels of inflammation
